Patent publication US12162863B2, “Modulators of stimulator of interferon genes (STING)” (RYVU THERAPEUTICS S.A., priority 2018, dated 2024)

Columns and labels:
[1] = molecular target: human STING (Homo sapiens, UniProt Q86WV6); assay: Fluorescence Thermal Shift assay; assay type: binding; settings: 50 μM compound; STING 0.1 mg/ml; 20 minutes preincubation; read-out: [hSTING] FTS, ΔTm [° C.] for 50 μM
Procedure, shortened: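 Human STING at a final 0.1 mg/ml was preincubated with compound for 20 min in 50 mM Hepes, 150 mM NaCl, pH 7.5, then SyproOrange dye was added. Thermal unfolding ran from 25 to 99° C at 0.033° C/s, continuous ramp. Values are reported as ΔTm (° C).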

[2] = system: interferon regulatory factor (IRF) pathway in THP-1 dual cells; assay: THP-1 Dual Reporter Assay, IRF pathway (luciferase reporter); assay type: cell-based; settings: Homo sapiens, THP1-Dual, 18 h of stimulation, luminescence
Procedure, shortened: (§1)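 THP-1 dual cells stimulated 18 h with STING agonist; medium then sampled. IRF pathway: luciferase (ISG54 promoter/ISRE) read as luminescence immediately after reagent addition. NF-κB pathway: SEAP (IFN-β minimal promoter/NF-κB elements) developed 2 h at 37 °C, absorbance at 630 nm.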

[3] = system: NF-κB pathway in THP-1 dual cells; assay: THP-1 Dual Reporter Assay, NF-κB pathway (SEAP reporter); assay type: cell-based; settings: Homo sapiens, THP1-Dual, 18 h of stimulation, absorbance at 630 nm, read-out: THP1 Dual EC50 (μM) NFkB
Procedure, shortened: as §1

human STING, sequence (Q86WV6 whole entry H232R): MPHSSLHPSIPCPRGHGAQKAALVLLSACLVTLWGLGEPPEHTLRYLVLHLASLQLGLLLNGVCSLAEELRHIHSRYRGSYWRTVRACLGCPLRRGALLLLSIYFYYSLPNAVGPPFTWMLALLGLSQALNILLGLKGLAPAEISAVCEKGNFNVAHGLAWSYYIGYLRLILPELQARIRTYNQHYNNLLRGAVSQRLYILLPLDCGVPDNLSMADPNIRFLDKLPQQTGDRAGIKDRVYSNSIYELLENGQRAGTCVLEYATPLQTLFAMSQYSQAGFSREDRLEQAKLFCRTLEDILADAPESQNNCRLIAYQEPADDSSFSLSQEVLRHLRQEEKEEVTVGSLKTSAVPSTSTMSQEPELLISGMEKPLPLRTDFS

SMILES	ΔTm at 50 µM [1] [°C]	EC50 [2] [µM]	EC50 [3] [µM]
COc1cc(CN(CCCn2cnc3ccccc32)Cc2c[nH]c3ccccc3c2=O)ccn1 [Example 88, 3-({[3-(1H-1,3-benzodiazol-1-yl)propyl][(2-methoxypyridin-4-yl)methyl]amino}methyl)-1,4-dihydroquinolin-4-one]	> 2.5	≥ 20	≥ 20
COc1ccccc1-c1ccc2c(=O)c(CN(CCCn3ccnc3)Cc3ccncc3)coc2c1 [Example 39, 3-({[3-(1H-imidazol-1-yl)propyl][(pyridin-4-yl)methyl]amino}methyl)-7-(2-methoxyphenyl)-4H-chromen-4-one]	> 2.5	≤ 10	10 to 20
O=c1c(CN(CCCn2ccnc2)Cc2ccncc2)coc2cc(-c3cc[nH]n3)ccc12 [Example 71, 3-({[3-(1H-imidazol-1-yl)propyl](pyridin-4-ylmethyl)amino}methyl)-7-(1H-pyrazol-3-yl)-4H-chromen-4-one]	> 2.5	≤ 10	10 to 20
COc1cc(CN(CCCc2cccnc2)Cc2nn(C)c3ccccc3c2=O)ccn1 [Example 94, 3-({[(2-methoxypyridin-4-yl)methyl][3-(pyridin-3-yl)propyl]amino}methyl)-1-methyl-1,4-dihydrocinnolin-4-one]	> 2.5	≤ 10	≥ 20
Cc1oc2cc(Br)c(F)cc2c(=O)c1CN(CCCc1cccnc1)Cc1ccncc1 [Example 63, 7-bromo-6-fluoro-2-methyl-3-({[3-(pyridin-3-yl)propyl][(pyridin-4-yl)methyl]amino}methyl)-4H-chromen-4-one]	> 2.5	≤ 10	≤ 10
Cc1oc2cc(Br)c(F)cc2c(=O)c1CN(CCCn1cnc2cncnc21)Cc1ccncc1 [Example 73, 7-bromo-6-fluoro-2-methyl-3-({[3-(9H-purin-9-yl)propyl][(pyridin-4-yl)methyl]amino}methyl)-4H-chromen-4-one]	> 2.5	10 to 20	≤ 10
COc1cc(CN(CCCn2cnc3cncnc32)Cc2c(C)oc3cc(Br)c(F)cc3c2=O)ccn1 [Example 78, 7-bromo-6-fluoro-3-({[(2-methoxypyridin-4-yl)methyl][3-(9H-purin-9-yl)propyl]amino}methyl)-2-methyl-4H-chromen-4-one]	> 2.5	≤ 10	≤ 10
O=c1c(CN(CCCn2cccn2)Cc2ccncc2)coc2ccccc12 [Example 3, 3-({[3-(1H-pyrazol-1-yl)propyl](pyridin-4-ylmethyl)amino}methyl)-4H-chromen-4-one]	< 2.5	≥ 20	≥ 20
COc1cccc(-c2cc3occ(CN(CCCn4ccnc4)Cc4ccncc4)c(=O)c3cc2F)c1 [Example 57, 6-fluoro-3-({[3-(1H-imidazol-1-yl)propyl][(pyridin-4-yl)methyl]amino}methyl)-7-(3-methoxyphenyl)-4H-chromen-4-one]	> 2.5	≥ 20	≥ 20
O=c1c(CN(CCCn2ccnc2)Cc2ccncc2)coc2cc(F)ccc12 [Example 11, 7-fluoro-3-({[3-(1H-imidazol-1-yl)propyl](pyridin-4-ylmethyl)amino}methyl)-4H-chromen-4-one]	< 2.5	10 to 20	≥ 20
CCn1cc(CN(CCCn2ccnc2)Cc2ccncc2)c(=O)c2ccccc21 [Example 43, 1-ethyl-3-({[3-(1H-imidazol-1-yl)propyl](pyridin-4-ylmethyl)amino}methyl)-1,4-dihydroquinolin-4-one]	< 2.5	≥ 20	≥ 20
COc1cc(CN(CCCn2cc(C(N)=O)nn2)Cc2cn(C)c3ccccc3c2=O)ccn1 [Example 103, 1-(3-{[(2-methoxypyridin-4-yl)methyl][(1-methyl-4-oxo-1,4-dihydroquinolin-3-yl)methyl]amino}propyl)-1H-1,2,3-triazole-4-carboxamide]	< 2.5	≥ 20	≥ 20
Cc1cc(CN(CCCc2cccnc2)Cc2cn(C)c3ccccc3c2=O)ccn1 [Example 101, 1-methyl-3-({[(2-methylpyridin-4-yl)methyl][3-(pyridin-3-yl)propyl]amino}methyl)-1,4-dihydroquinolin-4-one]	> 2.5	≤ 10	10 to 20
COc1cc(CN(CCCn2cnc3cncnc32)Cc2c(C)oc3cc(N4CCN(C)CC4)c(F)cc3c2=O)ccn1 [Example 84, 6-fluoro-2-methyl-7-(4-methylpiperazin-1-yl)-3-({[3-(9H-purin-9-yl)propyl][(2-methoxypyridin-4-yl)methyl]amino}methyl)-4H-chromen-4-one]	> 2.5	10 to 20	≤ 10
Cc1oc2ccccc2c(=O)c1CN(CCCn1ccnc1)Cc1ccncc1 [Example 36, 3-({[3-(1H-imidazol-1-yl)propyl][(pyridin-4-yl)methyl]amino}methyl)-2-methyl-4H-chromen-4-one]	> 2.5	≤ 10	10 to 20
COc1ccc(-c2ccc3c(=O)c(CN(CCCn4ccnc4)Cc4ccncc4)coc3c2)cc1OC [Example 38, 7-(3,4-dimethoxyphenyl)-3-({[3-(1H-imidazol-1-yl)propyl][(pyridin-4-yl)methyl]amino}methyl)-4H-chromen-4-one]	< 2.5	≥ 20	≥ 20
COc1ccc(-c2ccc3c(=O)c(CN(CCCn4ccnc4)Cc4ccncc4)coc3c2)cc1 [Example 32, 3-({[3-(1H-imidazol-1-yl)propyl](pyridin-4-ylmethyl)amino}methyl)-7-(4-methoxyphenyl)-4H-chromen-4-one]	> 2.5	10 to 20	≥ 20
Cc1ccc2c(=O)c(CN(CCCc3cccnc3)Cc3ccncc3)c(C)oc2c1C [Example 55, 2,7,8-trimethyl-3-({[3-(pyridin-3-yl)propyl][(pyridin-4-yl)methyl]amino}methyl)-4H-chromen-4-one]	> 2.5	≤ 10	≤ 10
Cc1oc2cc(C(=O)O)c(F)cc2c(=O)c1CN(CCCc1cccnc1)Cc1ccncc1 [Example 80, 6-fluoro-2-methyl-4-oxo-3-({[3-(pyridin-3-yl)propyl][(pyridin-4-yl)methyl]amino}methyl)-4H-chromene-7-carboxylic acid]	< 2.5	≥ 20	≥ 20
COc1cc(CN(CCCn2ccnc2)Cc2coc3ccccc3c2=O)ccn1 [Example 18, 3-({[3-(1H-imidazol-1-yl)propyl][(2-methoxypyridin-4-yl)methyl]amino}methyl)-4H-chromen-4-one]	< 2.5	≥ 20	≥ 20
COc1cc(CN(CCCc2cccnc2)Cc2n[nH]c3ccccc3c2=O)ccn1 [Example 98, 3-({[(2-methoxypyridin-4-yl)methyl][3-(pyridin-3-yl)propyl]amino}methyl)-1,4-dihydrocinnolin-4-one]	> 2.5	10 to 20	≥ 20
O=c1c(CN(CCCn2ccnn2)Cc2ccncc2)coc2ccccc12 [Example 4, 3-{[(pyridin-4-ylmethyl)[3-(1H-1,2,3-triazol-1-yl)propyl]amino]methyl}-4H-chromen-4-one]	< 2.5	≥ 20	≥ 20
Cc1ccc2c(=O)c(CN(CCCn3ccnc3)Cc3ccnc(F)c3)coc2c1C [Example 26, 3-({[(2-fluoropyridin-4-yl)methyl][3-(1H-imidazol-1-yl)propyl]amino}methyl)-7,8-dimethyl-4H-chromen-4-one]	< 2.5	≥ 20	≥ 20
Cc1oc2c(ccc3ccccc32)c(=O)c1CN(CCCn1ccnc1)Cc1ccncc1 [Example 67, 3-({[3-(1H-imidazol-1-yl)propyl][(pyridin-4-yl)methyl]amino}methyl)-2-methyl-4H-benzo[h]chromen-4-one]	> 2.5	≤ 10	≤ 10
COc1cc(CN(CCCn2ccnc2)Cc2coc3c(ccc4ccccc43)c2=O)ccn1 [Example 30, 3-({[3-(1H-imidazol-1-yl)propyl][(2-methoxypyridin-4-yl)methyl]amino}methyl)-4H-benzo[h]chromen-4-one]	> 2.5	≤ 10	≤ 10
O=c1c(CN(CCCn2cccc2)Cc2ccncc2)coc2ccccc12 [Example 2, 3-({[(pyridin-4-yl)methyl][3-(1H-pyrrol-1-yl)propyl]amino}methyl)-4H-chromen-4-one]	< 2.5	10 to 20	≥ 20
COc1ccc2c(=O)c(CN(CCCn3ccnc3)Cc3ccncc3)coc2c1 [Example 9, 3-({[3-(1H-imidazol-1-yl)propyl](pyridin-4-ylmethyl)amino}methyl)-7-methoxy-4H-chromen-4-one]	> 2.5	≤ 10	≤ 10
O=c1c(CN(CCCc2cncc3ccccc23)Cc2ccncc2)coc2c1ccc1ccccc12 [Example 61, 3-({[3-(isoquinolin-4-yl)propyl][(pyridin-4-yl)methyl]amino}methyl)-4H-benzo[h]chromen-4-one]	< 2.5	≥ 20	≥ 20
